Consider five molecules from ChEMBL document CHEMBL4428124, “Advances in rationally designed dual inhibitors of HIV-1 reverse transcriptase and integrase” (Bioorg Med Chem, 2016).

For assay [1], the target named is Human immunodeficiency virus type 1 reverse transcriptase (Human immunodeficiency virus 1, UniProt Q72547). Briefly: Inhibition of recombinant HIV1 RT.
Assay [2] has as its system Human immunodeficiency virus 1. Briefly: Antiviral activity against HIV1. It counts as functional, organism-based.

For `O=c1[nH]c(SCc2ccccc2)nc(C(O)c2ccccc2)c1O` (centres undefined), the IC50 (in general, the midpoint of a concentration-inhibition curve) in assay [1] is over 200 µM. The midpoint of the response in assay [2], the EC50, lay at 36.5 µM.
Consider `O=C(c1ccc(Cl)cc1)c1nc(SCc2ccccc2)[nH]c(=O)c1O`, for which the IC50 in assay [1] was determined as 113 µM. In addition, in assay [2], a half-maximal response (EC50) required 164 µM.
The like results for `O=C(c1ccc(Br)cc1)c1nc(SCc2ccccc2)[nH]c(=O)c1O` were, in that order, over 200 µM and 175 µM.
The like results for `O=C(c1ccccc1)c1nc(SCc2ccccc2)[nH]c(=O)c1O` were, in that order, 95.1 µM and 36 µM.
For the molecule `CC(C)Nc1cccnc1N1CCN(C(=O)c2cc3cc(NS(C)(=O)=O)ccc3[nH]2)CC1` [DELAVIRDINE], a half-maximal response in assay [2] (EC50) required 0.021 µM.
